Experimental findings from PMC6812009, “Covalent Aurora A regulation by the metabolic integrator coenzyme A” (Redox Biology, 2019) are described below.

Holding throughout (test): Kinase profiling screen (radioactive filter-binding assay)
Holding throughout (assay type): biochemical

One test deals with T1, EPH-B3 (Homo sapiens, UniProt P54753).
T1 sequence (P54753 34-998): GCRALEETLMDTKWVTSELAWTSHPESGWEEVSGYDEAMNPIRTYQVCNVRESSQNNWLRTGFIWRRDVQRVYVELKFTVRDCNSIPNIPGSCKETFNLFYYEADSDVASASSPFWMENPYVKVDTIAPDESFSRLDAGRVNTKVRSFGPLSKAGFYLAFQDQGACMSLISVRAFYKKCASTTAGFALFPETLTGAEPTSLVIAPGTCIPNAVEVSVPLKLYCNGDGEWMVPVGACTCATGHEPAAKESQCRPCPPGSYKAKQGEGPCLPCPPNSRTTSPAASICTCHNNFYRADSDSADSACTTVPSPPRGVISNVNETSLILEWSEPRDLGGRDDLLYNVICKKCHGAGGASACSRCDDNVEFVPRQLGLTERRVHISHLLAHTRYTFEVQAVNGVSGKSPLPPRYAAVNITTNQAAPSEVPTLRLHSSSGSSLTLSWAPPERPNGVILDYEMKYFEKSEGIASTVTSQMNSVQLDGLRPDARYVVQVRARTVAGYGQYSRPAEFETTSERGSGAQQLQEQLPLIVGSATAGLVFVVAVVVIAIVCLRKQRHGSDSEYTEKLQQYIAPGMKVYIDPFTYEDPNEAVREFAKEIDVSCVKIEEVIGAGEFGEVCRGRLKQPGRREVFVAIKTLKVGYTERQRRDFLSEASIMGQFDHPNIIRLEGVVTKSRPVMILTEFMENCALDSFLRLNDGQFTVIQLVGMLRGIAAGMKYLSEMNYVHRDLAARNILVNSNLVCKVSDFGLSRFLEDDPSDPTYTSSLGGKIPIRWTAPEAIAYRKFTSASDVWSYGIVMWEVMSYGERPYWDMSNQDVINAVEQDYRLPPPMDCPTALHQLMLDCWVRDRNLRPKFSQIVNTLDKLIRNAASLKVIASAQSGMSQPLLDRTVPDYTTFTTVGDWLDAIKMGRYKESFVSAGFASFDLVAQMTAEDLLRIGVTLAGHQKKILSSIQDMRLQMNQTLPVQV
The settings on record: 100 μM compound, 20 μM ATP; read-out: Kinase activity, % of activity in the absence of inhibitor. In outline:
(§1)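 Panel of 117 recombinant kinases; CoA, dpCoA, ADP each at 100 μM final, duplicates; model substrates, ATP at optimal level.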

Another test has as its target ERK1 (Homo sapiens, UniProt P27361). Conditions: 100 μM compound, 5 μM ATP; read-out: Kinase activity, % of activity in the absence of inhibitor. In outline:
as §1

The target of another test is ERK2 (Homo sapiens, UniProt P28482). The settings on record: 100 μM compound, 20 μM ATP; read-out: Kinase activity, % of activity in the absence of inhibitor. In outline: as §1
Sequence of ERK2 (P28482 whole entry): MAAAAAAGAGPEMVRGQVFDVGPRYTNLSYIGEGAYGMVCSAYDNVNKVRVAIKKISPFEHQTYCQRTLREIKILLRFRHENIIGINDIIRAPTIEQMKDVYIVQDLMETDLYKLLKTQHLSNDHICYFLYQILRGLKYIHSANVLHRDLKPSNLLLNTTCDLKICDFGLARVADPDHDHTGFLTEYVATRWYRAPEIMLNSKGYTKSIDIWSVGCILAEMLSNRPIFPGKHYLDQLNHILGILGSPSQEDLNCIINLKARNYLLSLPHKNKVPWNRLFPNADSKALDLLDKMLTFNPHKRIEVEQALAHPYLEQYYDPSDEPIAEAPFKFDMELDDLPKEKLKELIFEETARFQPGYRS
For the next test, the target named is T2, ERK8 (Homo sapiens, UniProt Q8TD08).
T2 sequence (Q8TD08 1-544): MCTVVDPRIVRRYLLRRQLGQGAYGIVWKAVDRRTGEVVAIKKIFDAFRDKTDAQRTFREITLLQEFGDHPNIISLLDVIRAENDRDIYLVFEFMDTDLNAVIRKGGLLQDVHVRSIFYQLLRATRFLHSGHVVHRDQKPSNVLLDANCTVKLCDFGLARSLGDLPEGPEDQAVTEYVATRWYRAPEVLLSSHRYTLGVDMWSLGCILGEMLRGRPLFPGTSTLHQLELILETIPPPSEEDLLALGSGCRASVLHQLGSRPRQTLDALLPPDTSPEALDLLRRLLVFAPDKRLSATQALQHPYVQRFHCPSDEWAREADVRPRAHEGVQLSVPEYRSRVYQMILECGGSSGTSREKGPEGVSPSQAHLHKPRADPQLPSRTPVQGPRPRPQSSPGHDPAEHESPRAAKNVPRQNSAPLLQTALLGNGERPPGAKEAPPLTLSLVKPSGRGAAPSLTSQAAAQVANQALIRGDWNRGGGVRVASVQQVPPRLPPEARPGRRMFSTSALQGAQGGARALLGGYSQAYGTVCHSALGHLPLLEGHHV
Conditions: 100 μM compound, 5 μM ATP; read-out: Kinase activity, % of activity in the absence of inhibitor. In outline:
as §1

A further test has as its target HIPK1 (Homo sapiens, UniProt Q86Z02). The settings on record: 100 μM compound, 20 μM ATP; read-out: Kinase activity, % of activity in the absence of inhibitor. In outline:
as §1

For a further test, the target named is Lck (Homo sapiens, UniProt P06239). Conditions: 100 μM compound, 50 μM ATP; read-out: Kinase activity, % of activity in the absence of inhibitor. In outline: as §1
Sequence of Lck (P06239 whole entry): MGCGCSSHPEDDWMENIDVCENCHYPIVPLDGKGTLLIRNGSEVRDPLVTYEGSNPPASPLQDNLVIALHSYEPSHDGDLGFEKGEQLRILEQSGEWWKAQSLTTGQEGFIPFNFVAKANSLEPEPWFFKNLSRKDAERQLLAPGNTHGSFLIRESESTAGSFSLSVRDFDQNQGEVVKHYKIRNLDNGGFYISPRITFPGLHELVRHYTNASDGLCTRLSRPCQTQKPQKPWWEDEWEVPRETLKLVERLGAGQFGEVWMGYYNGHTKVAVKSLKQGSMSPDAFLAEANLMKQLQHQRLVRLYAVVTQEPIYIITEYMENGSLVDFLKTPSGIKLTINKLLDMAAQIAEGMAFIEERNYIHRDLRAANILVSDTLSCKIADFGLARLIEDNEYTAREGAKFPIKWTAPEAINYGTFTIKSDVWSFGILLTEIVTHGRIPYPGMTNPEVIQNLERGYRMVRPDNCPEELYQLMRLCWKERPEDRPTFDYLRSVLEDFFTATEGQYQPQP
Another test has as its target MEKK1 (Homo sapiens, UniProt Q13233). The settings on record: 100 μM compound, 20 μM ATP; read-out: Kinase activity, % of activity in the absence of inhibitor. In outline: as §1
The next test has as its target MSPK1 (Homo sapiens, UniProt O75716). Conditions: 100 μM compound, 50 μM ATP; read-out: Kinase activity, % of activity in the absence of inhibitor. The method in brief:
as §1

A further test concerns the target T3, NEK2α (Homo sapiens, UniProt P51955).
T3 sequence (P51955 1-445): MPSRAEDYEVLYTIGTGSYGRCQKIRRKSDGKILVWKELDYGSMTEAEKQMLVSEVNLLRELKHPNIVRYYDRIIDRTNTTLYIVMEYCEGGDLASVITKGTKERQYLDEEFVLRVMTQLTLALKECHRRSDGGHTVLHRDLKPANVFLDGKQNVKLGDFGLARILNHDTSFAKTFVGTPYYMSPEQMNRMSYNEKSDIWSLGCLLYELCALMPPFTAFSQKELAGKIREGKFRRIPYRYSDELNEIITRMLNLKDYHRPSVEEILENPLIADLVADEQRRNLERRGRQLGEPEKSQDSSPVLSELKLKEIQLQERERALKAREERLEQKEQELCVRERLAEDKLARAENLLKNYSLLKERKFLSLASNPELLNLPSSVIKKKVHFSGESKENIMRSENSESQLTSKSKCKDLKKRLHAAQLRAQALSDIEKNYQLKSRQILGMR
Conditions: 100 μM compound, 50 μM ATP; read-out: Kinase activity, % of activity in the absence of inhibitor. The method in brief:
as §1

The next test has as its target PKCγ (Homo sapiens, UniProt P05129). The settings on record: 100 μM compound, 20 μM ATP; read-out: Kinase activity, % of activity in the absence of inhibitor. The method in brief: as §1

Sequence of MEKK1 (Q13233 whole entry): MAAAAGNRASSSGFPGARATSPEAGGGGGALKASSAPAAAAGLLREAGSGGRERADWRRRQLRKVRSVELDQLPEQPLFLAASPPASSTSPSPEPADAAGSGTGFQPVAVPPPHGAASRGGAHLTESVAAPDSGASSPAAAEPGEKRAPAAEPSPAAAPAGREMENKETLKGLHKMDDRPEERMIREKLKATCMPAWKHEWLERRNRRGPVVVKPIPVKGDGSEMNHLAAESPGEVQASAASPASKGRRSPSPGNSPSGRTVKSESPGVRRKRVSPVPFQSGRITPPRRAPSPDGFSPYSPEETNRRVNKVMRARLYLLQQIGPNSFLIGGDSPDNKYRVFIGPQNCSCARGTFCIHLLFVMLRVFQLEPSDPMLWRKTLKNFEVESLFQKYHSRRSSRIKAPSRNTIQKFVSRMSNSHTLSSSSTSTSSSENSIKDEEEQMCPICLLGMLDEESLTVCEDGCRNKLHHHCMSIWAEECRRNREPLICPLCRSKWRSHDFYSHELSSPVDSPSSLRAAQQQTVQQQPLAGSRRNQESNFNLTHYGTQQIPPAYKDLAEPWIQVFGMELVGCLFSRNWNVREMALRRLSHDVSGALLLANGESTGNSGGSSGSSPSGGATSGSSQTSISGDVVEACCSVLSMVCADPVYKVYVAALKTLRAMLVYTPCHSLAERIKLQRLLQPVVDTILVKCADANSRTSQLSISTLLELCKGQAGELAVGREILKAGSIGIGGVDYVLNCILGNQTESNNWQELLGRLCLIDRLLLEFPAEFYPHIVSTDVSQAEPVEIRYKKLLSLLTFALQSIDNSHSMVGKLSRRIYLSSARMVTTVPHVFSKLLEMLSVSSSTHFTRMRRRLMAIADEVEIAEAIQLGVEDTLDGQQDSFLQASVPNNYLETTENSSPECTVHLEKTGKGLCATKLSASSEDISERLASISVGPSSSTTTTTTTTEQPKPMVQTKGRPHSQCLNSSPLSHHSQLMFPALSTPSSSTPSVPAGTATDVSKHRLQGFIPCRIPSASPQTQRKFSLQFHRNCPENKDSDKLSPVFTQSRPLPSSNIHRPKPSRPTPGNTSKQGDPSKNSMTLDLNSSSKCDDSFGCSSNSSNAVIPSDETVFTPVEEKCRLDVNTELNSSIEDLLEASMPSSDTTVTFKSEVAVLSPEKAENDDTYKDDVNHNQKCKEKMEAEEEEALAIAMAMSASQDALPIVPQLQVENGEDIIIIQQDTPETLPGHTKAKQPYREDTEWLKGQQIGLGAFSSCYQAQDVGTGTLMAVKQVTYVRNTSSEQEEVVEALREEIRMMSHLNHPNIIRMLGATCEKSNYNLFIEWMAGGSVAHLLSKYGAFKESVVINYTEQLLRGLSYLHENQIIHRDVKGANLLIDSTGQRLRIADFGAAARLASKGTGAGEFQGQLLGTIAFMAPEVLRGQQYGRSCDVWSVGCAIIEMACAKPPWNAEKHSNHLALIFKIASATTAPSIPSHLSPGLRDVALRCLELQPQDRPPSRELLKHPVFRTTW
Sequence of HIPK1 (Q86Z02 whole entry): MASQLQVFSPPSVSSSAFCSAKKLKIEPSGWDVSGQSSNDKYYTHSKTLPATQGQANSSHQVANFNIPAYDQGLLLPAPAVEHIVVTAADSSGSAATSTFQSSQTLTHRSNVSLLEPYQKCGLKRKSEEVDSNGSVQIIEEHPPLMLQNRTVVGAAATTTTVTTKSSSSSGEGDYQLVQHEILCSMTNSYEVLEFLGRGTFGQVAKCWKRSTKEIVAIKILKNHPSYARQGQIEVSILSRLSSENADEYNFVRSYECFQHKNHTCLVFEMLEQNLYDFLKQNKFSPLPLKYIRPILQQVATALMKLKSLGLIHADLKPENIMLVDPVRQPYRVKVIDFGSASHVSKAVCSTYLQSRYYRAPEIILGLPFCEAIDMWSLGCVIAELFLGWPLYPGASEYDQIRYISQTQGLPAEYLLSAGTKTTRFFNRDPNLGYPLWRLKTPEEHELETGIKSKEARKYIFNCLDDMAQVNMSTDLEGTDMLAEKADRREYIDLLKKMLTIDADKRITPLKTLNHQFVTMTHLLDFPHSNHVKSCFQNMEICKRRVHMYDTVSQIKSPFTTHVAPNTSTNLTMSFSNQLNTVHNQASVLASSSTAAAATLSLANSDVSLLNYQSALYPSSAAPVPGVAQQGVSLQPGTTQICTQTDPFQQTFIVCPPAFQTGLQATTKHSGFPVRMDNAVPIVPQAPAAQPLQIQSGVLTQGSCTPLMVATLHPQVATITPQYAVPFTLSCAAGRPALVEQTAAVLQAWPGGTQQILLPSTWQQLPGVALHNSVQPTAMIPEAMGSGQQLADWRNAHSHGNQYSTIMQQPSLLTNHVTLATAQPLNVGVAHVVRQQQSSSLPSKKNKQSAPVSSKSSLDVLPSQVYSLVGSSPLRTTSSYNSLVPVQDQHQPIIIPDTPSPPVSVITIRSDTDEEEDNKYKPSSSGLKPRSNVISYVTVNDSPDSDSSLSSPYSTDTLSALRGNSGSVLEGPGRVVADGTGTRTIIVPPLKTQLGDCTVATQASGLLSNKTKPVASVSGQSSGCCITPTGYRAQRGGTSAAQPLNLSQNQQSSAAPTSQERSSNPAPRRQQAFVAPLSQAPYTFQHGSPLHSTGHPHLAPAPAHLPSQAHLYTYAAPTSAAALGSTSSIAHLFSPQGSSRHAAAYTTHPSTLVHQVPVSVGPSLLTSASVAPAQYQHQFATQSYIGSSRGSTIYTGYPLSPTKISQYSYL
Sequence of MSPK1 (O75716 whole entry): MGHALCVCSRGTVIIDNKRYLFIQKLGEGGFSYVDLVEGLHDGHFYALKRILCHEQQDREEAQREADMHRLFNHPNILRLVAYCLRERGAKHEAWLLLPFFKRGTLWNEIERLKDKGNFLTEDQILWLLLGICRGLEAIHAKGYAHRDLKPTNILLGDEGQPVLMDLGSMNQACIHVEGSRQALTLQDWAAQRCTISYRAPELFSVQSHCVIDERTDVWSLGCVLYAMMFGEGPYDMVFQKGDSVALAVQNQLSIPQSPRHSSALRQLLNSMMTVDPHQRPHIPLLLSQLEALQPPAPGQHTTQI
Sequence of ERK1 (P27361 whole entry): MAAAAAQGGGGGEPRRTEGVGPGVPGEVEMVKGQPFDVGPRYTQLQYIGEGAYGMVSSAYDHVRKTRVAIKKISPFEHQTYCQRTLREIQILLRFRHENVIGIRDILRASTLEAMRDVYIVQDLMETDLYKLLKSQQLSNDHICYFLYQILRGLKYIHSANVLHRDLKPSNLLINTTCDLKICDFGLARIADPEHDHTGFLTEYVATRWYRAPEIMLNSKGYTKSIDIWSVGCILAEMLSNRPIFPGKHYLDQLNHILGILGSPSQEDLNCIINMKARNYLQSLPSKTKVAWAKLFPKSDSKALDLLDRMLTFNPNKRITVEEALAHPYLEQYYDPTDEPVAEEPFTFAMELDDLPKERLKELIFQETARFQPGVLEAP

`Nc1ncnc2c1ncn2C1OC(COP(=O)(O)OP(=O)(O)O)C(O)C1O` (stereo not drawn) [ADP]: the activity at 100 µM stood at 18% on EPH-B3; 67.7% at ERK1; 54.4% at ERK2; 16.6% at ERK8; 31.7% at HIPK1; 35.1% at Lck. Moreover, the activity at 100 µM on MEKK1 is 68.1%; at MSPK1, 94.1%; on NEK2α it was 42.1%; at PKCγ, 71.9%.

Turning to `CC(C)(COP(=O)(O)OP(=O)(O)OC[C@H]1O[C@@H](n2cnc3c(N)ncnc32)[C@H](O)[C@@H]1OP(=O)(O)O)[C@@H](O)C(=O)NCCC(=O)NCCS` [CoA, Coenzyme A], the activity at 100 µM on EPH-B3 was found to be 104%; on ERK1 it was 118%; at ERK2, 120%; on ERK8, 101%; at HIPK1, 115%; at Lck it was 100%. The activity at 100 µM on MEKK1 came out at 96.3%; on MSPK1, 102%; at NEK2α it was 148%; at PKCγ, 70.2%.

In the case of `CC(C)(COP(=O)(O)OP(=O)(O)OCC1OC(n2cnc3c(N)ncnc32)C(O)C1O)C(O)C(=O)NCCC(=O)NCCS` (stereo not drawn) [dpCoA, dephospho-CoA], the activity at 100 µM at EPH-B3 is 94.4%; on ERK1, 114%; on ERK2 it was 81.7%; at ERK8 it was 38.5%; at HIPK1, 92.8%; at Lck it was 69%. The activity at 100 µM on MEKK1 came out at 106%; on MSPK1, 102%; at NEK2α, 100%; on PKCγ, 66.4%.
